According to patent US10363253B2, “Combination products for the treatment of RSV” (priority 2016, dated 2019):
Like-named read-outs stand apart in the source and are kept apart here.

Test system: rgRSV224, an engineered RSV strain that encodes for eGFP
Type: cell-based
Protocol: To evaluate their combined antiviral effect against RSV, in vitro combination studies were performed with JNJ-53718678 (“compound A”) and various compounds with different mechanisms-of-action (“compound B”). In short, 9 concentrations of Compound A were combined with 6 or 7 concentrations of a certain compound B. HeLa cells were infected with rgRSV224, an engineered RSV strain that encodes for eGFP (Hallak L K, Spillmann D, Collins P L, Peeples M E. Glycosaminoglycan sulfation requirements for respiratory syncytial virus infection; Journal of Virology (2000), 74(22), 10508-13), in the presence of various concentrations of compound A and compound B individually or in combination.
Compound stock solutions were 5 mM in 100% DMSO, with following exceptions: ribavirin, 20 mM; A 60444, 10 mM; CR9501, 141 μM in PBS; palivizumab, 156 μM in PBS; MDT 637, 100 μM in methanol. First, the compounds were serially diluted in 3-fold dilution series in DMSO; CR9501 and palivizumab were serially diluted in cell culture medium, and MDT 637 in methanol. The concentration series were diluted 100-fold in cell culture medium to achieve a combination matrix. 10 μL of these compound solutions were transferred to black 384-well clear-bottom tissue-culture treated plates. Next, 10 μL of a […] HeLa cell suspension was added to achieve 3000 cells per well. Finally, 10 μL of diluted virus stock was added to achieve an MOI of 1. The final DMSO concentration of all wells was 0.5% DMSO, except for the MDT 637 experiment where it was 0.25% DMSO+0.25% methanol. Each combination of compound concentrations was tested in 4 replicates on 3 separate plates, resulting in a total of 12 replicates. The plates were incubated for 3 days at 37° C. in a humidified atmosphere at 5% CO2. The GFP signal was measured with PerkinElmer EnVision apparatus using a 405 nm filter.
The method of Harbron (Statistics in Medicine, 2010, DOI:10.1002/sim3916) was used to assess synergy. Using the Loewe definition, two compounds are characterized as being additive, synergistic or antagonistic by:
where d1 and d2 represent the doses of the two compounds that in combination produce an effect y, and Dy,1 and Dy,2 represent the doses of the two compounds that produce the same effect, y, when administered as a monotherapy. A 3PL model (3-parameter log-logistic model) was used for the monotherapy dose-response data, where the baseline response was fixed at one.
Following Harbron's approach, the following models were fitted to the data: • “Additive”: assuming no interaction between the two compounds • “Uniform”: assuming a constant interaction index τ across all dose combinations • “Linear A”: assuming the interaction index linearly depends on the log 10 dose of compound A: z=τ1+τ2 log 10(dA) • “Separate A”: assuming the interaction index τ takes a separate value for each dose of compound A The latter two models were also considered for compound B: • “Linear B”: assuming the interaction index linearly τ depends on the log 10 dose of compound B: τ=τ1+τ2 log 10(dB) • “Separate B”: assuming the interaction index τ takes a separate value for each dose of compound B

## NC(=O)c1ncn([C@@H]2O[C@H](CO)[C@@H](O)[C@H]2O)n1 [ribavirin, 1-β-D-ribofuranosyl-1H-1,2,4-triazole-3-carboxamide, reference compound]
A = 0, B (ribavirin) = 69
  normalized GFP signal: 1.00
A = 0, B (ribavirin) = 206
  normalized GFP signal: 0.98
A = 0, B (ribavirin) = 617
  normalized GFP signal: 0.98
A = 0, B (ribavirin) = 1852
  normalized GFP signal: 0.97
A = 0, B (ribavirin) = 5556
  normalized GFP signal: 0.94
A = 0, B (ribavirin) = 16667
  normalized GFP signal: 0.83
A = 0, B (ribavirin) = 50000
  normalized GFP signal: 0.13

## Cc1cnc(N2CC3(CCOCC3)C2)c(C(=O)Nc2ccc(C(=O)N3CCc4cc(C(=O)Nc5c(C)cccc5F)sc4-c4ccccc43)cc2)c1 [pulmocide compound, N-(2-fluoro-6-methylphenyl)-6-(4-(5-methyl-2-(7-oxa-2-azaspiro[3.5]nonan-2-yl)nicotinamido)benzoyl)-5,6-dihydro-4H-benzo[b]thieno[2,3-d]azepine-2-carboxamide, reference compound]
  normalized GFP signal: 1.04
A = 0, B (pulmocide compound) = 0.058
  normalized GFP signal: 0.99
A = 0, B (pulmocide compound) = 0.17
  normalized GFP signal: 0.99
A = 0, B (pulmocide compound) = 1.6
  normalized GFP signal: 0.91
A = 0, B (pulmocide compound) = 4.7
  normalized GFP signal: 0.20
A = 0, B (pulmocide compound) = 14
  normalized GFP signal: 0.02
A = 0, B (pulmocide compound) = 42
  normalized GFP signal: 0.02

## COc1ccc(CCNCCCN2C(=O)c3c(cc(N)c4nc(-c5ccc(C)c([N+](=O)[O-])c5)[nH]c34)C(C)(C)C2=O)cc1OC [CAS 851658-10-1, 4-amino-8-[3-[[2-(3,4-dimethoxyphenyl)ethyl]amino]propyl]-6,6-dimethyl-2-(4-methyl-3-nitrophenyl)-3H-imidazo[4,5-h]isoquinoline-7,9(6H,8H)-dione, reference compound]
A = 0, B (CAS 851658-10-1) = 1.9
  normalized GFP signal: 0.99
A = 0, B (CAS 851658-10-1) = 5.7
  normalized GFP signal: 0.97
A = 0, B (CAS 851658-10-1) = 17
  normalized GFP signal: 0.89
A = 0, B (CAS 851658-10-1) = 51
  normalized GFP signal: 0.74
A = 0, B (CAS 851658-10-1) = 154
  normalized GFP signal: 0.38
A = 0, B (CAS 851658-10-1) = 463
  normalized GFP signal: 0.05
A = 0, B (CAS 851658-10-1) = 1389
  normalized GFP signal: 0.01

## O=C(Nc1ccccc1F)N[C@H]1N=C(c2ccccc2)c2ccccc2NC1=O [Compound A-60444, (S)-1-(2-fluorophenyl)-3-(2-oxo-5-phenyl-2,3-dihydro-1H-benzo[e][1,4]diazepin-3-yl) urea, reference compound]
A = 0, B (A-60444) = 34
  normalized GFP signal: 1.00
A = 0, B (A-60444) = 103
  normalized GFP signal: 1.00
A = 0, B (A-60444) = 309
  normalized GFP signal: 0.96
A = 0, B (A-60444) = 926
  normalized GFP signal: 0.93
A = 0, B (A-60444) = 2778
  normalized GFP signal: 0.93
A = 0, B (A-60444) = 8333
  normalized GFP signal: 0.75
A = 0, B (A-60444) = 25000
  normalized GFP signal: 0.39
